In US8846699B2, “Quinazoline derivatives as a multiplex inhibitor and method for the preparation thereof” (Hanmi Pharm. Co., Ltd., priority 2005, dated 2014):

Tests used:
[1] = tested on: skin cancer cell line, A431; experiment: Inhibitory effect on growth of cancer cell line A431, SRB; type: cell-based; details: overexpressed EGFR1 (HER-1)
Source text: (§1) A skin cancer cell line, A431 (ATCC: CRL-1555), a breast cancer cell line, SK-Br3 (ATCC: HTB-30), and a colon and rectal cancer cell line, SW-620 (ATCC: CCL-227) were used to test the degrees of cancer cell growth inhibition using a culture medium, DEME (Dulbecco's Modified Eagle's Medium, JBI) including 4.5 g/l of glucose and 1.5 g/l of sodium bicarbonate and supplemented with 10% FBS (fetal bovine serum, JBI).
(§2) The cancer cell lines stored in a liquid nitrogen tank were each quickly thawed at 37° C., and centrifuged to remove the medium. The resulting cell pellet was mixed with a culture medium, incubated in a culture flask at 37° C. under 5% CO2 for 2 to 3 days, and the medium was removed. The remaining cells were washed with DPBS (Dulbecco's Phosphate Buffered Saline, JBI) and separated from the flask by using Trypsin-EDTA solution, and the separated cells were diluted with a culture medium to a concentration of 1.0×10^6 cells/ml in case of A431 and SW-620, and 2.0×10^6 cells/ml in case of SK-Br3. 100 μl of the diluted cell solution was added to each well of a 96-well plate, which was incubated at 37° C. under 5% CO2 for 1 day.
(§3) In case that the test compound was not soluble in DMSO, a small amount of 1% HCl was added thereto and treated in a 40° C. water bath for 30 mins until complete dissolution was attained. The test compound solution was diluted with a culture medium to a final concentration of 10 μM, and then diluted 10 times serially to 10^−4. The final concentration of DMSO was less than 1%, and the control compounds of Test Example 1 were used at a concentration of 0.0001 to 10 μM.
(§4) The medium was removed from each well of the 96-well microplate, 100 μl of a diluted test compound solution was added to each well holding cultured cells, and the microplate was incubated at 37° C. under 5% CO2 for 72 hours. After removing the medium from the plate, 50 μl of 10% trichloroacetic acid was added to each well, and the plate was kept at 37° C. for 1 hour to fix the cells to the bottom of the plate. 10% trichloroacetic acid was removed from each well, the plate was dried, 100 μl of an SRB (Sulforhodamine-B, Sigma) dye solution was added thereto, and reacted for 10 mins. The SRB dye solution was prepared by dissolving SRB in 1% acetic acid to a concentration of 0.4%. After removing the dye solution, the plate was washed with water, and dried. When the dye solution was not removed by water, 1% acetic acid was used.
(§5) 150 μl of 10 mM trisma base (Sigma) was added to each well, and the absorbance at 570 nm was determined with a microplate reader (Molecular device).

[2] = tested on: colon and rectal cancer cell line, SW-620; experiment: Inhibitory effect on growth of cancer cell line SW-620, SRB; type: cell-based; details: not having overexpressed EGFR and EGFR2
Source text: as §1, §2, §3, §4, §5

[3] = tested on: breast cancer cell line, SK-Br3; experiment: Inhibitory effect on growth of cancer cell line SK-Br3, SRB; type: cell-based; details: overexpressed EGFR2 (HER-2)
Source text: as §1, §2, §3, §4, §5

[4] = tested on: Human Umbilical Vein Endothelial Cell (HUVEC); experiment: Inhibitory effect on growth of human umbilical vein endothelial cell (HUVEC), MTS; type: cell-based; details: 10 ng/ml VEGF, absorbance 490 nm
Protocol: HUVECs (Young Science, Inc) were suspended in a culture medium, EBM-2 (Endothelial Basic Media, Cambrex) supplemented with 2% bovine serum (Cambrex) and auxiliary additives for HUVEC culture (e.g., EGF, VEGF, FGF, etc., Cambrex), inoculated into a culture flask coated with 1% gelatin, and incubated in an incubator at 37° C. under 5% CO2 and 100% humidity.
100 μl of 5% bovine serum medium containing 10 ng/ml of vascular endothelial growth factor (VEGF) and auxiliary additives, while excluding other growth factors was added to each well of a 96-well plate. […] DMSO (Dimethylsulfoxide) was used to dissolve the test compounds, and the final concentration of DMSO was less than 1%.
100 μl of the diluted cell solution was added to each well of the 96-well plate, which was incubated in an incubator for 96 hours.
Then, 20 μl of MTS ([…], Promega) solution was added to each well of the plate, and the plate was incubated in an incubator for 4 hours to induce discoloration. After 4 hours, the pellets were dissolved by way of a thorough shaking, and the absorbance at 490 nm was determined.

EGFR1 (HER-1) = EGFR1 (HER-1) (Homo sapiens (Human), UniProt P00533); experiment: EGFR1 (HER-1) enzyme assay, fluorescence polarization; type: biochemical; details: 100 μM ATP, poly(Glu, Tyr) substrate
VEGFR2 (KDR) = VEGFR2 (KDR) (Homo sapiens (Human), UniProt P35968); experiment: VEGFR2 (KDR) enzyme assay, fluorescence polarization; type: biochemical; details: 5 μM ATP, poly(Glu, Tyr) substrate
Protocol: VEGFR2 (KDR, Proquinase) enzyme assay (auto-phosphorylation assay) was carried out by using Tyrosine Kinase Assay Kit Green (Panvera). The entire assay was conducted in accordance with VEGFR PTK inhibitor cellular activity test S.O.P.
A typical kinase inhibition reaction requires a protein tyrosine kinase, a suitable buffer solution system, a peptide substrate and ATP. In the present VEGFR tyrosine kinase assay, a buffer solution system containing 20 mM HEPES (pH 7.4), 5 mM MgCl2 and 2 mM MnCl2; 50 μM Na3VO4; 200 ng/10 μl VEGFR (Proquinase); 5 μM ATP; and 10 ng/ml poly(Glu, Tyr) (4:1, Sigma) as a substrate were used.
The compounds of Test Example 1 were used as control compounds at a concentration of 0.0001 to 10 μM. After 10 min, 10 μl of poly(Glu, Tyr) as a substrate was added to each well, and 10 μl of ATP was added thereto to initiate kinase reaction. The plate was incubated at room temperature for 1 hour, and 10 μl of 100 mM EDTA was added to each well to terminate the kinase reaction.
The added EDTA was mixed for 5 min. Thereafter, 10 μl of 10× anti-phosphotyrosine antibody (Panvera), 10 μl of 10×PTK Green Tracer (Panvera) and 30 μl of FP dilution buffer (Panvera) were added thereto, and the plate was incubated in a dark room at room temperature for 30 min.

Sequence of EGFR1 (HER-1) (P00533 25-1210): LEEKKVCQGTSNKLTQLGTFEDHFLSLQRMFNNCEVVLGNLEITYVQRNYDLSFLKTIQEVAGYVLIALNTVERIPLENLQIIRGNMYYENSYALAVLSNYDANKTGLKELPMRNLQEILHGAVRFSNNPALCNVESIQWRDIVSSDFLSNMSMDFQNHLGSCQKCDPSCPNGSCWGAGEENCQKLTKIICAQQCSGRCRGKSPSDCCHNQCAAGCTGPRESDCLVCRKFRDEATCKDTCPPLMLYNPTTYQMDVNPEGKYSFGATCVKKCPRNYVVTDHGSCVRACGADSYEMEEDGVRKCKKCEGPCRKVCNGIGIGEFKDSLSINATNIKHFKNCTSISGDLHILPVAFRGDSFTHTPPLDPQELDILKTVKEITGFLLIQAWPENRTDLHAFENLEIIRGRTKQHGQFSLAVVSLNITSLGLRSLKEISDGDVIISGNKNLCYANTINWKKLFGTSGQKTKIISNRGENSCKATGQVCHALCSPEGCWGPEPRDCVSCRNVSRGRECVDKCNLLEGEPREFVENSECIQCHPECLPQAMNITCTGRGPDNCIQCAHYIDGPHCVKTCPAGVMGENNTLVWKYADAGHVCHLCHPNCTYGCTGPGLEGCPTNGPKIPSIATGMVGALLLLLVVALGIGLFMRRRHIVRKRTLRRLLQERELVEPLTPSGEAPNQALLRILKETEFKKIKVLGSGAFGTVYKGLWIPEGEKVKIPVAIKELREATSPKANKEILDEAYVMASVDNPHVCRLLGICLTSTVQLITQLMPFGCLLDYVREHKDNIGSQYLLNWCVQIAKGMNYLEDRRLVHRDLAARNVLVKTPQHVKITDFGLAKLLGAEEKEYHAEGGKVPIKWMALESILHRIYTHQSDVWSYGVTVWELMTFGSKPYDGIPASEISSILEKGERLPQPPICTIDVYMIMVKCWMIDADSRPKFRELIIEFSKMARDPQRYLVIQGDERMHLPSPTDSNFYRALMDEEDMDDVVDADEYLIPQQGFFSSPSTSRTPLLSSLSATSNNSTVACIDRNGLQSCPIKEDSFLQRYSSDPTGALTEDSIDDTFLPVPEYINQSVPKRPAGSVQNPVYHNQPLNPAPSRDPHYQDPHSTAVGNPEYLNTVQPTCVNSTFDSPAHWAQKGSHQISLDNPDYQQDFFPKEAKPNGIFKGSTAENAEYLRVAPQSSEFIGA
Sequence of VEGFR2 (KDR) (P35968 20-1356): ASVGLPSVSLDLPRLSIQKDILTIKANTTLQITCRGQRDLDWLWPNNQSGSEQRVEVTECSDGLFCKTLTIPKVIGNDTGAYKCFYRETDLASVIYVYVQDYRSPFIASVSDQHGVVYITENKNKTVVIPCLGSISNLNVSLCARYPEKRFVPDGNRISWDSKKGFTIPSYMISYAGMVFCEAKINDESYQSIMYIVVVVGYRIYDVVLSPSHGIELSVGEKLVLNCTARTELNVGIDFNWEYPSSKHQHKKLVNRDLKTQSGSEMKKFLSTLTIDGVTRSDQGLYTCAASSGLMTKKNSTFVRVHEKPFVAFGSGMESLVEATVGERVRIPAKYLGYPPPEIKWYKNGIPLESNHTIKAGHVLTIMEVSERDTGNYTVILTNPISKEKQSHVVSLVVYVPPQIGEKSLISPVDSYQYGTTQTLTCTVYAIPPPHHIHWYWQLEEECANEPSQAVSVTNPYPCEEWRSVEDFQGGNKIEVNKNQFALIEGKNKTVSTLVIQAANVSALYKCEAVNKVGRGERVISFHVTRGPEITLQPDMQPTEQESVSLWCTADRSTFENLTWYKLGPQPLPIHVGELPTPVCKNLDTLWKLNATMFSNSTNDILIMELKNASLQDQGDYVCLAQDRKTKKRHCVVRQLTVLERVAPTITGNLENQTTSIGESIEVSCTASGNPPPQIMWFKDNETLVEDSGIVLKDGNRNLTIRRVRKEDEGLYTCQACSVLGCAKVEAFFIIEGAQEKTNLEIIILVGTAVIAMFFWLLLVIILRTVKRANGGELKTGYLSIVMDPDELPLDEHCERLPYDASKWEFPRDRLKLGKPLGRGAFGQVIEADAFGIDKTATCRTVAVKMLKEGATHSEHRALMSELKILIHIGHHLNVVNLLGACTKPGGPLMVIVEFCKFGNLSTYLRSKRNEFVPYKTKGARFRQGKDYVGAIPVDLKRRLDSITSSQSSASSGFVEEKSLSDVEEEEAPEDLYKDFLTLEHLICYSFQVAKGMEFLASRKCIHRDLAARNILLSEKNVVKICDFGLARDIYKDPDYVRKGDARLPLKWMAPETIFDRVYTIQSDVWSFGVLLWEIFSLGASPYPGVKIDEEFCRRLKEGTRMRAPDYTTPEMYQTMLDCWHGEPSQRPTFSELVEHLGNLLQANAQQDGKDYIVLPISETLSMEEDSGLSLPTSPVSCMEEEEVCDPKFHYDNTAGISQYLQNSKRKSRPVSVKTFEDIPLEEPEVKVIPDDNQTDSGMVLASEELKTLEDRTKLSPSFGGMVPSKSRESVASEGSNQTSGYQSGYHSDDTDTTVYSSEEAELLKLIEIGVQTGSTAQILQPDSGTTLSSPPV

Structure (SMILES)	IC50 ([1]; Homo sapiens, A-431, 72 h)	IC50 ([2]; Homo sapiens, 72 h)	IC50 ([3]; Homo sapiens, SK-BR-3, 72 h)	IC50 ([4]; Homo sapiens, 96 h)	IC50 (EGFR1 (HER-1))	IC50 ([1]; 72 hours)	IC50 ([2]; 72 hours)	IC50 ([3]; 72 hours)	IC50 ([4]; 96 hours)	IC50 (VEGFR2 (KDR))
Clc1ccc(Nc2nnc(Cc3ccncc3)c3ccccc23)cc1 [Control 1, PTK787, reference compound]	10000 nM	10000 nM	10000 nM	40 nM						
C=CC(=O)Nc1cc2c(Nc3ccc(Br)cc3F)ncnc2cc1OCCNC(=O)C1CCCN1C (centres unmarked) [Example 100, 1-methyl-pyrrolidine-2-carboxylic acid {2-[6-acryloylamino-4-(4-bromo-2-fluoro-phenylamino)-quinazolin-7-yloxy]-ethyl}-amide]					24 nM	25 nM	10000 nM	101 nM		
COc1cc2c(Nc3ccc(Br)cc3F)ncnc2cc1OCC1CCN(C)CC1 [Control 2, ZD6474, reference compound]	28 nM	4500 nM	2600 nM	70 nM						
C=CC(=O)Nc1cc2c(Nc3ccc(Br)cc3F)ncnc2cc1OC1CCCN(C(C)=O)C1 (centres unmarked) [Example 89, N-[7-(1-acetyl-piperidin-3-yloxy)-4-(4-bromo-2-fluoro-phenylamino)-quinazolin-6-yl]-acrylamide]	368 nM	10000 nM	965 nM	10000 nM	128 nM					
C=C(C)C(=O)Nc1cc2c(Nc3ccc(Br)cc3F)ncnc2cc1OCCNC(C)=O [Example 76, N-[7-(2-acetylamino-ethoxy)-4-(4-bromo-2-fluoro-phenylamino)-quinazolin-6-yl]-2-methyl-acrylamide]	2880 nM		6340 nM		1020 nM					
C=CC(=O)Nc1cc2c(Nc3ccc(Br)c(Cl)c3F)ncnc2cc1OC[C@H](C)NC(=O)CN(C)C [Example 158, (S)—N-4-(4-bromo-3-chloro-2-fluoro-phenylamino)-7-[2-(2-dimethylamino-acetylamino)-propoxy]-quinazolin-6-yl-acrylamide]					23.1 nM	259 nM	5150 nM	381 nM	10000 nM	
C=CC(=O)Nc1cc2c(Nc3ccc(Br)cc3F)ncnc2cc1OCCNC(=O)C1CCCN1C (centres unmarked) [Example 98, 1-methyl-pyrrolidine-2-carboxylic acid {2-[6-acryloylamino-4-(4-bromo-2-fluoro-phenylamino)-quinazolin-7-yloxy]-ethyl}-amide]		9570 nM	179 nM		69 nM	78 nM				
C=CC(=O)Nc1cc2c(Nc3cc(OC)c(Cl)cc3Cl)ncnc2cc1OCCNC(C)=O [Example 132, N-[7-(2-acetylamino-ethoxy)-4-(2,4-dichloro-5-methoxy-phenylamino)-quinazolin-6-yl]-acrylamide]	47 nM	2700 nM	36 nM		42 nM					
C=CC(=O)Nc1cc2c(Nc3ccc(Br)cc3F)ncnc2cc1OC1CCN(C(C)=O)C1 (centres unmarked) [Example 88, N-[7-(1-acetyl-pyrrolidin-3-yloxy)-4-(4-bromo-2-fluoro-phenylamino)-quinazolin-6-yl]-acrylamide]	99 nM	723 nM	297 nM	10000 nM	94 nM					
C=CC(=O)Nc1cc2c(Nc3ccc(Br)cc3F)ncnc2cc1OCC(NC(=O)CN(C)C)C(C)C (centres unmarked) [Example 156, N-{4-(4-bromo-2-fluoro-phenylamino)-7-[2-(2-dimethylamino-acetylamino)-3-methyl-buthoxy]-quinazolin-6-yl}-acrylamide]					149 nM	196 nM	3270 nM	462 nM	10000 nM	
C=CC(=O)Nc1cc2c(Nc3ccc(F)c(Cl)c3)ncnc2cc1OCCNC(C)=O [Example 111, N-[7-(2-acetylamino-ethoxy)-4-(3-chloro-4-fluoro-phenylamino)-quinazolin-6-yl]-acrylamide]	9 nM	8530 nM	26 nM		12 nM					
C=CC(=O)Nc1cc2c(Nc3ccc(Br)cc3C(F)(F)F)ncnc2cc1OCCNC(C)=O [Example 114, N-[7-(2-acetylamino-ethoxy)-4-(4-bromo-2-trifluoromethyl-phenylamino)-quinazolin-6-yl]-acrylamide]	468 nM		897 nM		456 nM					
C=CC(=O)N(C)c1cc2c(Nc3ccc(Br)cc3F)ncnc2cc1OCCNC(C)=O [Example 78, N-[7-(2-acetylamino-ethoxy)-4-(4-bromo-2-fluoro-phenylamino)-quinazolin-6-yl]-N-methyl-acrylamide]	396 nM		1210 nM		389 nM					
C=CC(=O)Nc1cc2c(Nc3cc(C(=O)NOC)c(Br)cc3F)ncnc2cc1OCCNC(C)=O [Example 131, 5-[7-(2-acetylamino-ethoxy)-6-acryloylamino-quinazolin-4-ylamino]-2-bromo-4-fluoro-N-methoxy-benzamide]				965 nM						756 nM
C=CC(=O)Nc1cc2c(Nc3cc(OC)c(Cl)cc3OC)ncnc2cc1OCCNC(=O)CN(C)C [Example 166, N-{4-(4-chloro-2,5-dimethoxy-phenylamino)-7-[2-(2-dimethylamino-acetylamino)-ethoxy]-quinazolin-6-yl}-acrylamide]	30 nM	5650 nM	27 nM		14 nM					
C=CC(=O)Nc1cc2c(Nc3ccc(Br)c(Cl)c3)ncnc2cc1OCCNC(=O)CN(C)C [Example 152]					75 nM	99 nM	10000 nM	647 nM	10000 nM	
C=CC(=O)Nc1cc2c(Nc3ccc(Br)cc3F)ncnc2cc1OCC(C)(C)NC(=O)CN(C)C [Example 154, N-{4-(4-bromo-2-fluoro-phenylamino)-7-[2-(2-dimethylamino-acetylamino)-2-methyl-propoxy]-quinazolin-6-yl}-acrylamide]	248 nM	9130 nM	240 nM		222 nM					
